Active and inactive are the calls of the source. No cut-off for these calls is given here.
Columns and labels:
[1] = Cytotoxicity against human HL-7702 cells assessed as viable cells at 10 uM measured after 24 hrs by MTT assay; type: toxicity, cell-based; conditions: l02, 24 h
RAW264.7 [2] = assay: Anti-inflammatory activity in mouse RAW264.7 cells assessed as inhibition of LPS-induced TNF-alpha expression at […] pretreated for 30 mins followed by LPS challenge measured after 24 hrs by ELISA method; type: functional, cell-based
RAW264.7 [3] = assay: Anti-inflammatory activity in mouse RAW264.7 cells assessed as inhibition of LPS-induced IL-6 expression at […] pretreated for 30 mins followed by LPS challenge measured after 24 hrs by ELISA method; type: functional, cell-based
[4] = Chemical stability of the compound in phosphate buffer at pH 7.4 at 20 uM measured every 5 mins for 25 mins by UV-visible absorption spectra analysis; type: physicochemical; conditions: pH 7.4, 25 min
RAW264.7 [5] = assay: Anti-inflammatory activity in mouse RAW264.7 cells assessed as inhibition of LPS-induced IL-6 expression pretreated for 30 mins followed by LPS challenge measured after 24 hrs by ELISA method; type: functional, cell-based
Peritoneal macrophage [6] = assay: Anti-inflammatory activity in mouse peritoneal macrophage assessed as inhibition of LPS-induced IL-6 expression at 10 uM pretreated for 30 mins followed by LPS challenge measured after 6 hrs by q-PCR analysis; type: functional
Mus musculus [7] = assay: Anti-inflammatory activity in LPS-induced C57BL/6 mouse acute lung injury model assessed as reduction in TNF-alpha level in serum at 5 mg/kg, ig pretreated for 7 days followed LPS challenge measured after 6 hrs by ELISA method; type: functional, organism-based
Peritoneal macrophage [8] = assay: Anti-inflammatory activity in mouse peritoneal macrophage assessed as inhibition of LPS-induced IL-33 mRNA expression at 10 uM pretreated for 30 mins followed by LPS challenge measured after 6 hrs by q-PCR analysis; type: functional
Mus musculus [9] = assay: Anti-inflammatory activity in LPS-induced C57BL/6 mouse acute lung injury model assessed as reduction in total number of cells in bronchoalveolar lavage fluid at 5 mg/kg, ig pretreated for 7 days followed LPS challenge measured after 6 hrs by hemocytometer; type: functional, organism-based
Mus musculus [10] = assay: Anti-inflammatory activity in LPS-induced C57BL/6 mouse acute lung injury model assessed as reduction in airspace inflammation in lung tissue at 5 mg/kg, ig pretreated for 7 days followed LPS challenge measured after 6 hrs by hematoxylin and eosin staining based light microscopy; type: functional, organism-based
Mus musculus [11] = assay: Anti-inflammatory activity in LPS-induced C57BL/6 mouse acute lung injury model assessed as reduction in number of neutrophils in bronchoalveolar lavage fluid at 5 mg/kg, ig pretreated for 7 days followed LPS challenge measured after 6 hrs by Wright-Giemsa staining based assay; type: functional, organism-based
Mus musculus [12] = assay: Anti-inflammatory activity in LPS-induced C57BL/6 mouse acute lung injury model assessed as reduction in CD68-positive macrophage level in lung tissue at 5 mg/kg, ig pretreated for 7 days followed LPS challenge measured after 6 hrs by […] light microscopy; type: functional, organism-based
Mus musculus [13] = assay: Anti-inflammatory activity in LPS-induced C57BL/6 mouse acute lung injury model assessed as reduction in TNF-alpha level in bronchoalveolar lavage fluid at 5 mg/kg, ig pretreated for 7 days followed LPS challenge measured after 6 hrs by ELISA method; type: functional, organism-based
Mus musculus [14] = assay: Anti-inflammatory activity in LPS-induced C57BL/6 mouse acute lung injury model assessed as reduction in IL-6 level in bronchoalveolar lavage fluid at 5 mg/kg, ig pretreated for 7 days followed LPS challenge measured after 6 hrs by ELISA method; type: functional, organism-based
Peritoneal macrophage [15] = assay: Anti-inflammatory activity in mouse peritoneal macrophage assessed as inhibition of LPS-induced TNF-alpha mRNA expression at 10 uM pretreated for 30 mins followed by LPS challenge measured after 6 hrs by q-PCR analysis; type: functional
Mus musculus [16] = assay: Anti-inflammatory activity in LPS-induced C57BL/6 mouse acute lung injury model assessed as reduction in lung wet/dry ratio at 5 mg/kg, ig pretreated for 7 days followed LPS challenge measured after 6 hrs; type: functional, organism-based
Mus musculus [17] = assay: Anti-inflammatory activity in LPS-induced C57BL/6 mouse acute lung injury model assessed as reduction in IL-6 level in serum at 5 mg/kg, ig pretreated for 7 days followed LPS challenge measured after 6 hrs by ELISA method; type: functional, organism-based
Peritoneal macrophage [18] = assay: Anti-inflammatory activity in mouse peritoneal macrophage assessed as inhibition of LPS-induced IL-12 mRNA expression at 10 uM pretreated for 30 mins followed by LPS challenge measured after 6 hrs by q-PCR analysis; type: functional
Mus musculus [19] = assay: Anti-inflammatory activity in LPS-induced C57BL/6 mouse acute lung injury model assessed as reduction in total protein concentration at 5 mg/kg, ig pretreated for 7 days followed LPS challenge measured after 6 hrs by BCA protein assay; type: functional, organism-based

COc1ccc(/C=C/c2cc(OC)cc(OC)c2/C=C/C(=O)/C=C/c2ccccc2C(F)(F)F)cc1
Activity [1]: Non-Toxic | inhibition (RAW264.7 [2]): Active | inhibition (RAW264.7 [3]): Active

C=CCOc1ccc(/C=C/C(=O)/C=C/c2c(/C=C/c3ccc(OC)cc3)cc(OC)cc2OC)cc1
Activity [1]: Non-Toxic

CCN(CC)c1ccc(/C=C/C(=O)/C=C/c2c(/C=C/c3ccc(OC)cc3)cc(OC)cc2OC)cc1
Activity [1]: Non-Toxic | inhibition (RAW264.7 [3]): Active

Oc1ccc(/C=C/c2cc(O)cc(O)c2)cc1 [RESVERATROL]
Stability [4]: Unstable

COc1ccc(/C=C/c2cc(OC)cc(OC)c2/C=C/C(=O)/C=C/c2ccc(O)c(Br)c2)cc1
Activity [1]: Non-Toxic

COc1ccc(/C=C/c2cc(OC)cc(OC)c2/C=C/C(=O)/C=C/c2ccccc2)cc1
Stability [4]: Unstable | Activity [1]: Non-Toxic | inhibition (RAW264.7 [2]): Active | inhibition (RAW264.7 [3]): Active | IC50 (RAW264.7 [5]): 3.9 µM | inhibition (RAW264.7 [5]): Dose-dependent effect

COc1ccc(/C=C/c2cc(OC)cc(OC)c2/C=C/C(=O)/C=C/c2cccc(OC)c2OC)cc1
inhibition (Peritoneal macrophage [6]): Active | Activity (Mus musculus [7]): Active | Stability [4]: Stable | inhibition (Peritoneal macrophage [8]): Active | Activity [1]: Non-Toxic | Activity (Mus musculus [9]): Active | Activity (Mus musculus [10]): Active | Activity (Mus musculus [11]): Active | Activity (Mus musculus [12]): Active | Activity (Mus musculus [13]): Active | inhibition (RAW264.7 [2]): Active | Activity (Mus musculus [14]): Active | inhibition (Peritoneal macrophage [15]): Active | Activity (Mus musculus [16]): Active | inhibition (RAW264.7 [3]): Active | IC50 (RAW264.7 [5]): 2.48 µM | inhibition (RAW264.7 [5]): Dose-dependent effect | Activity (Mus musculus [17]): Active | inhibition (Peritoneal macrophage [18]): Active | Activity (Mus musculus [19]): Active

COc1ccc(/C=C/c2cc(OC)cc(OC)c2/C=C/C(=O)/C=C/c2ccc(C(F)(F)F)cc2)cc1
Activity [1]: Non-Toxic

COc1ccc(/C=C/c2cc(OC)cc(OC)c2/C=C/C(=O)/C=C/c2ccc(N3CCN(C)CC3)cc2)cc1
Activity [1]: Non-Toxic

COc1ccc(/C=C/c2cc(OC)cc(OC)c2/C=C/C(=O)/C=C/c2ccccc2Br)cc1
Activity [1]: Non-Toxic

COc1ccc(/C=C/c2cc(OC)cc(OC)c2/C=C/C(=O)/C=C/c2cccc(C(F)(F)F)c2)cc1
Activity [1]: Non-Toxic | inhibition (RAW264.7 [3]): Active

COc1ccc(/C=C/c2cc(OC)cc(OC)c2/C=C/C(=O)/C=C/c2ccccc2OC)cc1
Activity [1]: Non-Toxic

COc1ccc(/C=C/c2cc(OC)cc(OC)c2/C=C/C(=O)/C=C/c2ccc(C(C)(C)C)cc2)cc1
Activity [1]: Non-Toxic

COc1ccc(/C=C/c2cc(OC)cc(OC)c2/C=C/C(=O)/C=C/c2ccc(OC(C)(C)C)cc2)cc1
Activity [1]: Non-Toxic

COc1ccc(/C=C/c2cc(OC)cc(OC)c2/C=C/C(=O)/C=C/c2ccc(O)c(OC)c2)cc1
Activity [1]: Non-Toxic

COc1ccc(/C=C/c2cc(OC)cc(OC)c2/C=C/C(=O)/C=C/c2ccc(OC)cc2OC)cc1
Stability [4]: Stable | Activity [1]: Non-Toxic | inhibition (RAW264.7 [2]): Active | inhibition (RAW264.7 [3]): Active | IC50 (RAW264.7 [5]): 3.03 µM | inhibition (RAW264.7 [5]): Dose-dependent effect

COc1ccc(/C=C/c2cc(OC)cc(OC)c2/C=C/C(=O)/C=C/c2ccc3c(c2OC)OCO3)cc1
Activity [1]: Non-Toxic

COc1ccc(/C=C/c2cc(OC)cc(OC)c2/C=C/C(=O)/C=C/c2c(OC)cc(OC)cc2OC)cc1
Activity [1]: Non-Toxic | inhibition (RAW264.7 [3]): Active

COc1ccc(/C=C/c2cc(OC)cc(OC)c2/C=C/C(=O)/C=C/c2ccc(OCCCN(C)C)cc2)cc1
Stability [4]: Stable | Activity [1]: Non-Toxic | inhibition (RAW264.7 [2]): Active | inhibition (RAW264.7 [3]): Active | IC50 (RAW264.7 [5]): 2.15 µM | inhibition (RAW264.7 [5]): Dose-dependent effect

COc1ccc(/C=C/c2cc(OC)cc(OC)c2/C=C/C(=O)/C=C/c2ccc(C)cc2C)cc1
Activity [1]: Non-Toxic

COc1ccc(/C=C/c2cc(OC)cc(OC)c2/C=C/C(=O)/C=C/c2ccccc2Cl)cc1
Activity [1]: Non-Toxic

CCOc1ccc(/C=C/C(=O)/C=C/c2c(/C=C/c3ccc(OC)cc3)cc(OC)cc2OC)cc1
Activity [1]: Non-Toxic

COc1ccc(/C=C/c2cc(OC)cc(OC)c2/C=C/C(=O)/C=C/c2cc(C(F)(F)F)ccc2C(F)(F)F)cc1
Activity [1]: Non-Toxic

COc1ccc(/C=C/c2cc(OC)cc(OC)c2/C=C/C(=O)/C=C/c2ccc(C)s2)cc1
Stability [4]: Unstable | Activity [1]: Non-Toxic | inhibition (RAW264.7 [2]): Active | inhibition (RAW264.7 [3]): Active | IC50 (RAW264.7 [5]): 4.33 µM | inhibition (RAW264.7 [5]): Dose-dependent effect

COc1ccc(/C=C/c2cc(OC)cc(OC)c2/C=C/C(=O)/C=C/c2cccc3ccccc23)cc1
Activity [1]: Non-Toxic

COc1ccc(/C=C/c2cc(OC)cc(OC)c2/C=C/C(=O)/C=C/c2ccc(OC)c(Br)c2)cc1
Activity [1]: Non-Toxic | inhibition (RAW264.7 [3]): Active

— ChEMBL document CHEMBL3877268, “Development of resveratrol-curcumin hybrids as potential therapeutic agents for inflammatory lung diseases” (Eur J Med Chem, 2017)
